From patent US10906946B2, “Thrombin inhibitors” (priority 2015, dated 2021)
Where two headings read alike, the source gives them in different places. Ends that are not written are not given here. Peptide text beside a SMILES is read from it.

Target: T1, human α-thrombin (Homo sapiens, UniProt P00734)
T1 construct: residues in the termini of the light chain; purchased Chemo-Sero-Therapeutic Research Institute (Kaketsuken, Japan), as a gift, not bought
Experiment: Thrombin amidolytic activity assay with chromogenic substrate S2238
Format: biochemical
Settings: for Hill slope of thrombin amidolytic inhibition: 0 min pre-incubation where stated; for Hill Slope: Table 2
Description: Thrombin amidolytic activity assays for all peptides were performed in 96-wells microtiter plates in 50 mM Tris buffer (pH 7.4) containing 100 mM NaCl and 1 mg/ml bovine serum albumin. […] The rates of formation of p-nitroaniline were followed by measuring the absorbance at 405 nm for 10 min with a Tecan InfinitePro M200 microplate reader from Tecan (Männedorf, Switzerland). Dose-response curves were fitted using the GraphPad Prizm software (San Diego, Calif., USA) to calculate IC50 values and Hill coefficients. To measure the inhibitory constants, different concentrations of S2238 were used and the residual velocities were determined using the Morrison's tight binding equation. Inhibition of thrombin fibrinogenolytic activity of peptides were tested by measuring absorbance at 650 nm using a Sunrise microplate reader from Tecan (Männedorf, Switzerland) as described previously [Koh C Y, et al., J Biol Chem 282: 29101-13 (2007)]. The selectivity of avathrin was examined against 13 serine proteases (FIG. 5). Effects of avathrin on the amidolytic activities of these serine proteases were determined using respective chromogenic substrates. […] Avathrin (150 μM) was incubated with thrombin (5 μM), in 50 mM Tris buffer (pH 7.4) containing 150 mM NaCl and 1 mg/ml BSA. After different incubation times, reactions were quenched with 1% TFA (pH 1.8) and loaded onto a Jupiter Proteo column (4 μm, 90 Å, 100×1.0 mm) attached to a Dionex nano-HPLC system from Thermo Fisher Scientific (Waltham, Mass., USA) and eluted using an acetonitrile gradient with 0.05% TFA and 99.95% MilliQ water as eluent A and 0.05% TFA, 19.95% MilliQ water and 80% ACN as eluent B. Masses of all peaks were measured to identify cleavage products, which were subsequently quantified by integrating the peaks and calculating the area under the curves. To measure the effect of different pre-incubation times on the thrombin inhibitory activity, amidolytic assays were performed for various incubation times (up to 36 h).

[1] = IC50 of inhibition of thrombin amidolytic activity, thrombin 0.81 nM, S2238 100 μM, without pre-incubation (0 min) where stated
[2] = inhibitory constant Ki for thrombin, thrombin 0.81 nM, various S2238 concentrations
[3] = IC50 (nM), Table 4, members of variegin family

CC[C@H](C)[C@H](NC(=O)[C@H](C)NC(=O)[C@H](CC(=O)O)NC(=O)[C@H](CC(=O)O)NC(=O)[C@@H]1CCCN1C(=O)[C@@H](NC(=O)[C@H](CCC(=O)O)NC(=O)[C@H](CCC(=O)O)NC(=O)[C@H](Cc1ccccc1)NC(=O)[C@H](CC(=O)O)NC(=O)CNC(=O)[C@@H]1CCCN1C(=O)[C@@H]1CCCN1C(=O)[C@H](C)NC(=O)[C@@H](NC(=O)[C@H](CO)NC(=O)[C@H](Cc1ccc(O)cc1)NC(=O)[C@@H](N)CCSC)[C@@H](C)O)[C@@H](C)CC)C(=O)N[C@@H](CCC(=O)O)C(=O)N[C@@H](CCC(=O)O)C(=O)O [UV011] (H-MYSTAPPGDFEEIPDDAIEE-OH)
fold better Ki than avathrin C-terminal cleavage product IS20: around 4 fold | fold better Ki than variegin C-terminal cleavage product MH22: around 10 fold | IC50 [1]: 1.66 ± 0.77 nM | Ki [2]: 1.39 ± 0.23 nM

CC[C@H](C)[C@H](NC(=O)[C@H](CCCCN)NC(=O)[C@@H]1CCCN1C(=O)[C@@H](NC(=O)[C@H](C)NC(=O)[C@@H](NC(=O)[C@H](CCC(N)=O)NC(=O)[C@H](Cc1c[nH]cn1)NC(=O)CNC(=O)CNC(=O)[C@@H](N)CO)[C@@H](C)O)C(C)C)C(=O)N[C@@H](CO)C(=O)N[C@@H](CCCCN)C(=O)N[C@@H](CCC(N)=O)C(=O)NCC(=O)N1CCC[C@H]1C(=O)N1CCC[C@H]1C(=O)NCC(=O)N[C@@H](CC(=O)O)C(=O)N[C@@H](Cc1ccccc1)C(=O)N[C@@H](CCC(=O)O)C(=O)N[C@@H](CCC(=O)O)C(=O)N[C@H](C(=O)N1CCC[C@H]1C(=O)N[C@@H](CO)C(=O)N[C@@H](CC(=O)O)C(=O)N[C@@H](CCC(=O)O)C(=O)N[C@H](C(=O)N[C@H](C(=O)N[C@@H](CCC(=O)O)C(=O)O)[C@@H](C)CC)[C@@H](C)CC)[C@@H](C)CC [L16P, G17P] (H-SGGHQTAVPKISKQGPPGDFEEIPSDEIIE-OH)
fold drop in potency compared with avathrin: > 25 fold | Hill slope of thrombin amidolytic inhibition: 0.54±0.02 | IC50 [1]: 181 ± 3.76 nM | Hill Slope: 0.54 ± 0.02

CC[C@H](C)[C@H](NC(=O)[C@H](CCCCN)NC(=O)[C@@H]1CCCN1C(=O)[C@@H](NC(=O)[C@H](C)NC(=O)[C@@H](NC(=O)[C@H](CC(=O)O)NC(=O)[C@H](Cc1c[nH]cn1)NC(=O)CNC(=O)[C@H](CC(=O)O)NC(=O)[C@@H](N)CO)[C@@H](C)O)C(C)C)C(=O)N[C@@H](CO)C(=O)N[C@@H](CCCCN)C(=O)N[C@@H](CCC(N)=O)C(=O)NCC(=O)N[C@@H](CC(C)C)C(=O)NCC(=O)NCC(=O)N[C@@H](CC(=O)O)C(=O)N[C@@H](Cc1ccccc1)C(=O)N[C@@H](CCC(=O)O)C(=O)N[C@@H](CCC(=O)O)C(=O)N[C@H](C(=O)N1CCC[C@H]1C(=O)N[C@@H](CO)C(=O)N[C@@H](CC(=O)O)C(=O)N[C@@H](CCC(=O)O)C(=O)N[C@H](C(=O)N[C@H](C(=O)N[C@@H](CCC(=O)O)C(=O)O)[C@@H](C)CC)[C@@H](C)CC)[C@@H](C)CC [G2D, Q5D] (H-SDGHDTAVPKISKQGLGGDFEEIPSDEIIE-OH)
fold drop in potency compared with avathrin: < 2 fold | Hill slope of thrombin amidolytic inhibition: 0.71±0.03 | IC50 [1]: 13 ± 1.23 nM | Hill Slope: 0.71 ± 0.03

CC[C@H](C)[C@H](NC(=O)[C@H](CCC(=O)O)NC(=O)[C@H](CC(=O)O)NC(=O)[C@H](CC(=O)O)NC(=O)[C@@H]1CCCN1C(=O)[C@@H](NC(=O)[C@H](CCC(=O)O)NC(=O)[C@H](CCC(=O)O)NC(=O)[C@H](Cc1ccccc1)NC(=O)[C@H](CC(=O)O)NC(=O)CNC(=O)[C@@H]1CCCN1C(=O)[C@@H]1CCCN1C(=O)[C@H](C)NC(=O)[C@@H](NC(=O)[C@H](CO)NC(=O)[C@H](Cc1ccc(O)cc1)NC(=O)[C@H](CCSC)NC(=O)[C@H](CCCCN)NC(=O)[C@@H]1CCCN1C(=O)[C@@H](NC(=O)[C@H](C)NC(=O)[C@H](CCCNC(=N)N)NC(=O)[C@@H](NC(=O)[C@H](C)NC(=O)[C@H](CCC(=O)O)NC(=O)[C@H](CC(=O)O)NC(=O)[C@@H](N)CO)C(C)C)[C@@H](C)CC)[C@@H](C)O)[C@@H](C)CC)C(=O)N[C@@H](CCC(=O)O)C(=O)N[C@@H](CCC(=O)O)C(=O)O [UV012] (H-SDEAVRAIPKMYSTAPPGDFEEIPDDEIEE-OH; N-terminus and C-terminus assumed)
fold drop in affinity for thrombin compared to ultravariegin: 5 fold

CC[C@H](C)[C@H](NC(=O)[C@H](CC(=O)O)NC(=O)[C@H](CCC(=O)O)NC(=O)[C@H](Cc1ccccc1)NC(=O)[C@H](CC(=O)O)NC(=O)CNC(=O)CNC(=O)[C@H](CC(C)C)NC(=O)CNC(=O)[C@H](CCCCN)NC(=O)[C@H](CCCNC(=N)N)NC(=O)[C@H](CO)NC(=O)[C@H](CCSC)NC(=O)[C@H](CCCCN)NC(=O)[C@@H]1CCCN1C(=O)[C@@H](NC(=O)[C@H](C)NC(=O)[C@@H](NC(=O)[C@H](Cc1c[nH]cn1)NC(=O)[C@H](CC(=O)O)NC(=O)[C@H](CCC(=O)O)NC(=O)CNC(=O)[C@@H](N)CO)[C@@H](C)O)C(C)C)C(=O)N1CCC[C@H]1C(=O)N1CCC[C@H]1C(=O)N[C@@H](CCC(=O)O)C(=O)N[C@@H](C)C(=O)N[C@@H](Cc1ccc(O)cc1)C(=O)N[C@@H](CCC(=O)O)C(=O)N[C@@H](CCCNC(=N)N)C(=O)N[C@@H](C)C(=O)N[C@@H](CC(C)C)C(=O)N[C@@H](CCC(=O)O)C(=O)N[C@@H](C)C(=O)N[C@@H](CCCNC(=N)N)C(=O)O [Amblyomma americanum] (H-SGEDHTAVPKMSRKGLGGDFEDIPPEAYERALEAR-OH)
Ki (Affinity (nM), Table 4, Ki values): 1.63 ± 0.61 nM | IC50 [3]: 14.29 ± 0.12 nM

ELESGDEDSEGGDSQSSPTESAAPRLHQREGGGGDFENVEYDQDQK [Amblyomma maculatum]
IC50 [3]: 130 ± 1.74 nM

SDVAPADYESDEGDNDGGHDGSEVAKPKMPRGNGGGGDFEEIPEVE [Rhipicephalus sanguineus]
IC50 (Table 4, members of variegin family, read-out: IC50): 42.4 ± 0.62 nM | Ki (thrombin 0.81 nM, various S2238 concentrations, read-out: inhibitory constant Ki for thrombin): 8.79 ± 0.65 nM

CC[C@H](C)[C@H](NC(=O)[C@H](C)NC(=O)[C@H](CCCNC(=N)N)NC(=O)[C@@H](NC(=O)[C@H](C)NC(=O)[C@H](CCC(=O)O)NC(=O)[C@H](CC(=O)O)NC(=O)[C@@H](N)CO)C(C)C)C(=O)N1CCC[C@H]1C(=O)N[C@@H](CCCCN)C(=O)N[C@@H](CCSC)C(=O)N[C@@H](Cc1ccc(O)cc1)C(=O)N[C@@H](CO)C(=O)N[C@H](C(=O)N[C@@H](C)C(=O)N1CCC[C@H]1C(=O)N1CCC[C@H]1C(=O)NCC(=O)N[C@@H](CC(=O)O)C(=O)N[C@@H](Cc1ccccc1)C(=O)N[C@@H](CCC(=O)O)C(=O)N[C@@H](CCC(=O)O)C(=O)N[C@H](C(=O)N1CCC[C@H]1C(=O)N[C@@H](CCC(=O)O)C(=O)N[C@@H](CCC(=O)O)C(=O)N[C@@H](Cc1ccc(O)cc1)C(=O)N[C@@H](CC(C)C)C(=O)N[C@@H](CC(=O)O)C(=O)N[C@@H](CC(=O)O)C(=O)N[C@@H](CCC(=O)O)C(=O)N[C@@H](CO)C(=O)O)[C@@H](C)CC)[C@@H](C)O [UV005]
fold drop in affinity for thrombin compared to ultravariegin: around 3.6 fold | IC50 (IC50 of inhibition of thrombin amidolytic activity, FIG. 17 legend): 0.91 ± 0.47 nM | Ki [2]: 0.016 ± 0.00305 nM

TGSDDDDEYDMYESDGDSNEGNDNDEFETAVPRLPNPNSGRDSEHIPMPVN [Hyalomma marginatum rufipes]
IC50 [3]: 32.5 ± 3.94 nM | Ki [2]: 6.13 ± 0.39 nM
